BindingDB's records for patent US20250313563 (The Broad Institute, 2025)
Where “and” joins values, the source holds several entries; their conditions need not be identical. Equal entries are not always repeated.

Legend:
[1] = target: Glycogen synthase kinase-3 alpha (Homo sapiens, UniProt P49840); assay: TR-FRET Assay
Procedure, shortened: (§1)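 TR-FRET readout: streptavidin-d2 (40 nM in added detection mix) plus Tb-anti-pSer641 Ab (2 nM in mix). Steps were 30 min compound preincubation, kinase reaction, then EDTA stop.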

[2] = target: Glycogen synthase kinase-3 beta (Homo sapiens, UniProt P49841); assay: TR-FRET Assay
Procedure, shortened: as §1

Glycogen synthase kinase-3 alpha, sequence (P49840 whole entry): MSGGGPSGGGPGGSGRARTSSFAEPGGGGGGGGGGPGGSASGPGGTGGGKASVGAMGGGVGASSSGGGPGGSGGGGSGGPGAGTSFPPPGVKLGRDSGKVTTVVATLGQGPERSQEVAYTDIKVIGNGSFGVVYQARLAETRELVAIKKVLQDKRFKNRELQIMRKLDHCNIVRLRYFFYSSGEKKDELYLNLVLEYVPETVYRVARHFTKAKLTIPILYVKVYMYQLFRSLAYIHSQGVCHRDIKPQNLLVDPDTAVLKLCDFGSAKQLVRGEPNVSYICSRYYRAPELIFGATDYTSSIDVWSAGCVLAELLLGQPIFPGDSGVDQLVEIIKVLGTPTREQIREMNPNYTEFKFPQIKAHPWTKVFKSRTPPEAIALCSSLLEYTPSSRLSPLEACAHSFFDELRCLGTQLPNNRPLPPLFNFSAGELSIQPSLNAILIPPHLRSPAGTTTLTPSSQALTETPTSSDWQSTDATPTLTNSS
Glycogen synthase kinase-3 beta, sequence (P49841 whole entry): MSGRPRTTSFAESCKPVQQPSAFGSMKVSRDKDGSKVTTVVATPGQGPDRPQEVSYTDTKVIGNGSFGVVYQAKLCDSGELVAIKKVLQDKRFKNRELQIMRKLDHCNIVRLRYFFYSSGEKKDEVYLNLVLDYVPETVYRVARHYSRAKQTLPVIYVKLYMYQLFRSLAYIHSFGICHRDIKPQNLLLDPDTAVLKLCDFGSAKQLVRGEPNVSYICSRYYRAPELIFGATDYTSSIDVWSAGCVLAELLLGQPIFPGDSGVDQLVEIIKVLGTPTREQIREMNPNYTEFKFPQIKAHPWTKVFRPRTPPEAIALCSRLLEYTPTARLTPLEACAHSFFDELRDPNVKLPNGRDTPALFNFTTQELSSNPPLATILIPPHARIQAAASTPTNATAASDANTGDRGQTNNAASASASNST

| SMILES | IC50 [1] | IC50 [2] |
| --- | --- | --- |
| CC[C@]1(c2cccc(-c3ccnn3C)c2)C2=CN=NC2NC2=C1C(=O)CC(C)(C)[C@@H]2F (stereo partly drawn) [US20250313563, Compound 957506] | < 0.1 µM and 0.1 to 1 µM | 0.1 to 1 µM and > 5 µM |
| CC1(C)CC(=O)C2=C(C1)NC1=C(CN=N1)C21CCN(S(=O)(=O)c2cccnc2)CC1 [US20250313563, Compound 947613] | < 0.1 µM and 0.1 to 1 µM | < 0.1 µM and 1 to 5 µM |
| CC[C@@]1(c2cccc([C@@H]3CCOC3)c2)C2=CN=NC2NC2=C1C(=O)CC(C)(C)C2 (stereo partly drawn) [US20250313563, Compound 889565] | 0.1 to 1 µM | 1 to 5 µM |
| CC1(C)CC(=O)C2=C(C1)NC1=C(CN=N1)C21CN(C(=O)OCc2ccccc2)C1 [US20250313563, Compound 889568] | 0.1 to 1 µM | 1 to 5 µM |
| CCC1(CC)C2=C(N=NC2)NC2=C1C(=O)CC(C)(C)C2 [US20250313563, Compound 810505] | 1 to 5 µM | > 5 µM |
| CC[C@@]1(c2cccc(-c3cc(C)ncc3F)c2)C2=CN=NC2NC2=C1C(=O)NC(C)(C)C2 (stereo partly drawn) [US20250313563, Compound 947822] | 0.1 to 1 µM | > 5 µM |
| CC[C@@]1(c2cccc(-c3cc(C)nn3C)c2)C2=C(N=NC2)NC2=C1C(=O)C(C)(C)C2 [US20250313563, Compound 950818] | 0.1 to 1 µM | 1 to 5 µM |
| CC[C@@]1(c2cccc(-c3c(C)cncc3C)c2)C2=CN=NC2NC2=C1C(=O)NC(C)(C)C2 (stereo partly drawn) [US20250313563, Compound 948812] | < 0.1 µM and 0.1 to 1 µM | < 0.1 µM and 1 to 5 µM |
| CC[C@]1(c2ccccc2)C2=CN=NC2NC2=C1C(=O)[C@@H](F)C(C)(C)C2 (stereo partly drawn) [US20250313563, Compound 826769] | > 5 µM | > 5 µM |
| CC(C)S(=O)(=O)N1CCC2(CC1)C1=C(N=NC1)NC1=C2C(=O)CC(C)(C)[C@H]1F [US20250313563, Compound 951701] | < 0.1 µM and 0.1 to 1 µM | < 0.1 µM and 1 to 5 µM |
| CC[C@]1(c2cccc(-c3cc(C4CCCC4)nn3C)c2)C2=CN=NC2NC2=C1C(=O)NC(C)(C)C2 (stereo partly drawn) [US20250313563, Compound 949509] | > 5 µM | > 5 µM |
| CC1(C)CC(=O)C2=C(C1)NC1=C(CN=N1)[C@@]21CCOC2(CCOCC2)C1 [US20250313563, Compound 924306] | 0.1 to 1 µM | 0.1 to 1 µM |
| CC[C@@]1(c2cccc(C(C)C)c2)C2=CN=NC2NC2=C1C(=O)CC(C)(C)C2 (stereo partly drawn) [US20250313563, Compound 810375] | 1 to 5 µM | > 5 µM |
| CC[C@@]1(c2cccc(N3CCCCC3)c2)C2=C(CC(C)(C)CC2=O)NC2N=NC(C(F)(F)F)=C21 (stereo partly drawn) [US20250313563, Compound 816799] | 0.1 to 1 µM | 1 to 5 µM |
| CC[C@@H]1C[C@]2(CO1)C1=C(N=NC1)NC1=C2C(=O)CC(C)(C)C1 [US20250313563, Compound 913213] | 0.1 to 1 µM | 1 to 5 µM |
| CC[C@]1(c2cccc(-c3ccnc(C)c3)c2)C2=CN=NC2NC2=C1C(=O)CC(C)(C)C2 (stereo partly drawn) [US20250313563, Compound 865169] | < 0.1 µM and 0.1 to 1 µM | 0.1 to 1 µM and > 5 µM |
| CC[C@@]1(c2cccc(N(C)c3cncnc3)c2)C2=CN=NC2NC2=C1C(=O)NC(C)(C)C2 (stereo partly drawn) [US20250313563, Compound 915401] | 0.1 to 1 µM | 1 to 5 µM |
| CCC1(c2cccc(-c3ccnc(C)c3)c2)C2=C(CC(C)(C)NC2=O)NC2N=NC(C)=C21 (stereo not drawn) [US20250313563, Compound 947798] | < 0.1 µM | 0.1 to 1 µM |
| CC[C@]1(c2cccc(C(F)(F)F)c2)C2=CN=NC2NC2=C1C(=O)N[C@@H](c1ccccc1)C2 (stereo partly drawn) [US20250313563, Compound 945362] | 1 to 5 µM | > 5 µM |
| CC[C@@]1(c2cccc(C(F)(F)F)c2)C2=CN=NC2NC2=C1C(=O)NC[C@H]2C (stereo partly drawn) [US20250313563, Compound 945385] | > 5 µM | > 5 µM |
| CC[C@]1(c2cccc(C(F)(F)F)c2)C2=CN=NC2NC2=C1C(=O)N(CC(F)(F)F)CC2 (stereo partly drawn) [US20250313563, Compound 912205] | > 5 µM | > 5 µM |
| CC[C@@]1(c2cccc(-c3cnn4c3CCCC4)c2)C2=C(CC(C)(C)NC2=O)NC2N=NC(C(F)(F)F)=C21 (stereo partly drawn) [US20250313563, Compound 948775] | < 0.1 µM | < 0.1 µM and 0.1 to 1 µM |
| CCC1(c2cccc(-c3cnnc(C)c3)c2)C2=CN=NC2NC2=C1C(=O)NC(C)(C)C2 (stereo not drawn) [US20250313563, Compound 943496] | < 0.1 µM | 1 to 5 µM |
| CC[C@@]1(c2cccc(-c3ccncc3)c2)C2=CN=NC2NC2=C1C(=O)CC(C)(C)C2 (stereo partly drawn) [US20250313563, Compound 801413] | 0.1 to 1 µM | 1 to 5 µM |

More lines, now with the values ahead:

| IC50 [1] | IC50 [2] | SMILES |
| --- | --- | --- |
| < 0.1 µM | < 0.1 µM | CC1(C)CC(=O)C2=C(C1)NC1N=NC(Br)=C1[C@]21CCc2c(F)cccc21 (stereo partly drawn) [US20250313563, Compound 806939] |
| < 0.1 µM | < 0.1 µM | CCC1(c2cccc(-c3ccnc4ccccc34)c2)C2=CN=NC2NC2=C1C(=O)CC(C)(C)C2 (stereo not drawn) [US20250313563, Compound 932631] |
| < 0.1 µM | 0.1 to 1 µM | CC1(C)CC(=O)C2=C(C1)NC1=C(CN=N1)C21CCSC1 (stereo not drawn) [US20250313563, Compound 883973] |
| < 0.1 µM | < 0.1 µM | CCC1(c2cccc(N(C)C(=O)Cc3ccccc3)c2)C2=CN=NC2NC2=C1C(=O)CC(C)(C)C2 (stereo not drawn) [US20250313563, Compound 912071] |
| < 0.1 µM | 0.1 to 1 µM | CC[C@@]1(c2cccc(N(C)c3cccc(C(F)(F)F)n3)c2)C2=CN=NC2NC2=C1C(=O)CC(C)(C)C2 (stereo partly drawn) [US20250313563, Compound 927338] |
| < 0.1 µM | < 0.1 µM | CCC1(c2cccc(S(=O)(=O)C3CC3)c2)C2=CN=NC2NC2=C1C(=O)NC(C)(C)C2 (stereo not drawn) [US20250313563, Compound 945465] |
| < 0.1 µM | < 0.1 µM | CC[C@]1(c2cccc(OC)c2)C2=C(CC(C)(C)CC2=O)NC2N=NC(C(=O)OC)=C21 (stereo partly drawn) [US20250313563, Compound 901479] |
| < 0.1 µM | 0.1 to 1 µM | CC[C@]1(c2cccc(-c3c4c(cn3C)CCCC4)c2)C2=CN=NC2NC2=C1C(=O)NC(C)(C)C2 (stereo partly drawn) [US20250313563, Compound 948655] |
| < 0.1 µM | < 0.1 µM and 0.1 to 1 µM | CC[C@@]1(c2cccc(-c3cnn(C)c3)c2)C2=C(CC(C)(C)NC2=O)NC2N=NC(C(F)(F)F)=C21 (stereo partly drawn) [US20250313563, Compound 947877] |
| < 0.1 µM | < 0.1 µM and 0.1 to 1 µM | CCC1(c2cccc(-c3cnn(C)c3C)c2)C2=C(CC(C)(C)NC2=O)NC2N=NC(C(F)(F)F)=C21 (stereo not drawn) [US20250313563, Compound 947403] |
| < 0.1 µM | 0.1 to 1 µM | CCC1(c2cccc(-c3cnn(C)c3)c2)C2=C(CC(C)(C)NC2=O)NC2N=NC(F)=C21 (stereo not drawn) [US20250313563, Compound 948300] |
| < 0.1 µM | < 0.1 µM | CCC1(c2cccc(C3=CN=NC3)c2)C2=C(CC(C)(C)NC2=O)NC2N=NC(C(F)(F)F)=C21 (stereo not drawn) [US20250313563, Compound 947677] |
| < 0.1 µM | 0.1 to 1 µM | CCC1(c2cccc(-c3cccnc3)c2)C2=CN=NC2NC2=C1C(=O)CC(C)(C)C2 (stereo not drawn) [US20250313563, Compound 791272] |
| < 0.1 µM | < 0.1 µM | CC1(C)CC(=O)C2=C(C1)NC1=C(CN=N1)C21CCN(S(=O)(=O)c2cccc3c2CCCC3)CC1 [US20250313563, Compound 947470] |
| < 0.1 µM | < 0.1 µM | CCC1(c2cccc(-c3cncn3C(C)C)c2)C2=CN=NC2NC2=C1C(=O)CC(C)(C)C2F (stereo not drawn) [US20250313563, Compound 963155] |
